Values of other authors as cited in article PMC7318222, “A Family of Water‐Immiscible, Dipolar Aprotic, Diamide Solvents from Succinic Acid” (Chemsuschem, 2020).
Marks after values point to notes of the source that are not given here.

Experiments:
[1] = design: key to C (carcinogenicity) / M (mutagenicity) / R (reproduction toxicity) / S (skin sensitization): −: absence of property; +: presence of property; ?: no prediction possible; details: cited from earlier work
[2] = design: method as in PubChem; details: data obtained from PubChem; ref PubChem; cited from earlier work
[3] = exp: conclusion based on reliable experimental data

In the case of `CCCCN1CCCC1=O` [NBP, N‐Butylpyrrolidinone, reference compound], the “M (mutagenicity)” value [1, 3] is given as “− (exp)”, the “R (reproduction toxicity)” value [1, 3] is given as “− (exp)” and the “S (skin sensitization)” value [1, 3] is given as “− (exp)”. For the same compound, the “M (mutagenicity), in words” value ([1]; experimental data) was “negative”, the “R (reproduction toxicity), in words” value ([1]; experimental data) was “negative” and the “S (skin sensitization), in words” value ([1]; experimental data) was “negative”.
For `CN1CCCC1=O` [NMP, N‐methyl‐2‐pyrrolidone, reference compound], the “C (carcinogenicity)” value [1, 3] is given as “− (exp)”, the “M (mutagenicity)” value [1, 3] is given as “− (exp)” and the “R (reproduction toxicity)” value [1, 3] is given as “+ (exp)”. The “S (skin sensitization)” value [1, 3] was “− (exp)”, the “C (carcinogenicity), in words” value ([1]; experimental data) was “negative” and the “M (mutagenicity), in words” value ([1]; experimental data) was “negative”. The “R (reproduction toxicity), in words” value ([1]; experimental data) was “positive”, the “S (skin sensitization), in words” value ([1]; experimental data) was “negative” and the “Log P (o/w)” value [2] was −0.38^[d].
